Read-outs that look alike come from different tables or passages of the source.
Experiments:
Tyk2 = biological target: T1, Tyk2 (Homo sapiens, UniProt P29597); test: Biochemical Tyk2 kinase assay (LanthaScreen); details: for Ki: read-out: Tyk 2 (pKi) (converted)
T1 construct: GST; purchased Life Technologies
Outline: (§1)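 GST-JAK + GFP-STAT1 peptide + cpd, 1 h preinc RT; ATP start, 1% DMSO, 1 h RT; stop 10 mM EDTA + 2 nM Tb-anti-pSTAT1; 1 h; TR-FRET 520/495. % inhib vs DMSO/background → IC50 (4-PL) → pKi (Cheng-Prusoff).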

JAK3 = biological target: T2, JAK3 (Homo sapiens, UniProt P52333); test: Biochemical JAK3 kinase assay (LanthaScreen); design: GST; purchased Life Technologies; details: for Ki: read-out: JAK 3 (pKi) (converted)
T2 sequence (P52333 1-1124): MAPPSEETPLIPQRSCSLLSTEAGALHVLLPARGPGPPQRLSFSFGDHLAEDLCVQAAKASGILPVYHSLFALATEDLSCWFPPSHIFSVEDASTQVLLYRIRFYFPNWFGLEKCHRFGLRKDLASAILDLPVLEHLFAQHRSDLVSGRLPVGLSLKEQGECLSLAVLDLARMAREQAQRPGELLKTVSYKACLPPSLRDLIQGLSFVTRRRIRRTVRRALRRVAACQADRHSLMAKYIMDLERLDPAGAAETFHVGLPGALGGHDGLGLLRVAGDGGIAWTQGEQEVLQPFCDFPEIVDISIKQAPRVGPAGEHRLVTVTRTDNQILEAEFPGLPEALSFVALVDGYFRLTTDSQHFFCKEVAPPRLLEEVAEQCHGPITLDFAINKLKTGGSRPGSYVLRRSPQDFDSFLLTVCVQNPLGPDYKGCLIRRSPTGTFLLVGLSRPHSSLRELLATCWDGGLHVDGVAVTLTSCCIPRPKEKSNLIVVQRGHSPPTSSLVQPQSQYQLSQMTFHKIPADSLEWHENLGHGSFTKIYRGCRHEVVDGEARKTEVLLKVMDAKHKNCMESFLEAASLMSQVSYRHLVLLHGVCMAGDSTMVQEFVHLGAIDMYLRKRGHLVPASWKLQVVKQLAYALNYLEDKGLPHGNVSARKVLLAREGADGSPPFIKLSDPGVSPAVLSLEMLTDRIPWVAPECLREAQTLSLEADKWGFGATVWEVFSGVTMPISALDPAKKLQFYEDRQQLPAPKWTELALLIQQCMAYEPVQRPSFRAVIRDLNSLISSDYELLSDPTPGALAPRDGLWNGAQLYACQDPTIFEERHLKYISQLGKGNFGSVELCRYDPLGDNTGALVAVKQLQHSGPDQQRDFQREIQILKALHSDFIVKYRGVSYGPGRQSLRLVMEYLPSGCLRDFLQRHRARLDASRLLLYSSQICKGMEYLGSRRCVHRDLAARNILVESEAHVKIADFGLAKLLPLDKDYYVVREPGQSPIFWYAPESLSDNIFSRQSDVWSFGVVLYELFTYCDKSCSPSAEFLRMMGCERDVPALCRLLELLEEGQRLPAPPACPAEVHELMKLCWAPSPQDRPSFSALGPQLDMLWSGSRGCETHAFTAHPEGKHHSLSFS
Outline: as §1

JAK1 = biological target: T3, JAK1 (Homo sapiens, UniProt P23458); test: Biochemical JAK1 kinase assay (LanthaScreen); details: for Ki: read-out: JAK 1 (pKi) (converted)
T3 construct: GST; purchased Life Technologies
T3 sequence (P23458 whole entry): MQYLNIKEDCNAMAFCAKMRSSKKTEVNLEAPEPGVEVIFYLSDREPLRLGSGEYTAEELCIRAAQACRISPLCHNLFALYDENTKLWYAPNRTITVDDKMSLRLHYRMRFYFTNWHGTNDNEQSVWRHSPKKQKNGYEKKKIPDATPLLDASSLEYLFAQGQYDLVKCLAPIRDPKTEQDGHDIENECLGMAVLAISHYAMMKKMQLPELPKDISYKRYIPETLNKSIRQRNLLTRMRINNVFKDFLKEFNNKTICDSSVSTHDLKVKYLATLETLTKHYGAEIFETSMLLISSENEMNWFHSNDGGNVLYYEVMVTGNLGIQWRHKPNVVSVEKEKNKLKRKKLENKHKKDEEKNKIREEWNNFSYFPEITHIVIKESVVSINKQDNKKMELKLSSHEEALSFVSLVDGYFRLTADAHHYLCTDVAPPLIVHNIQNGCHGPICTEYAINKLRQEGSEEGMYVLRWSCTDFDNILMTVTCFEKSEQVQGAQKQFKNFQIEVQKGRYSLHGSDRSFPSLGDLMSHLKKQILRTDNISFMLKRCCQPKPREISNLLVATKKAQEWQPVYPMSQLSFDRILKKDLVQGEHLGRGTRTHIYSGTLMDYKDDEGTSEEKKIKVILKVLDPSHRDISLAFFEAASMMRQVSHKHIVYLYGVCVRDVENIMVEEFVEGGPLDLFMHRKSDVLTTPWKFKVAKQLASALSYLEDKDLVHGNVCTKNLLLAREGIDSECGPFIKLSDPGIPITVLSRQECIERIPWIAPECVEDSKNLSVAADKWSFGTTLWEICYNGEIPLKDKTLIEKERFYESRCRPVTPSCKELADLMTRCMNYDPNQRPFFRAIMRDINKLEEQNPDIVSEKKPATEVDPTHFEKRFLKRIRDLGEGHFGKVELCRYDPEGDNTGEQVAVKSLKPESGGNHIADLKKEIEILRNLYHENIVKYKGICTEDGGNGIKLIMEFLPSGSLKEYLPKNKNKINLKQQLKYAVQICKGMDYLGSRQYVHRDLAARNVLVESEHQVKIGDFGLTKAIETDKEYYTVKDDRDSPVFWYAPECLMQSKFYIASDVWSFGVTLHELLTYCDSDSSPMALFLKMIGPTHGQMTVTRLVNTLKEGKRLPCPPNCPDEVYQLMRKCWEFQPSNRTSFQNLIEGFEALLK
Outline: as §1

JAK2 = biological target: T4, JAK2 (Homo sapiens, UniProt O60674); test: Biochemical JAK2 kinase assay (LanthaScreen); details: for Ki: read-out: JAK 2 (pKi) (converted)
T4 construct: GST; purchased Life Technologies
T4 sequence (O60674 whole entry): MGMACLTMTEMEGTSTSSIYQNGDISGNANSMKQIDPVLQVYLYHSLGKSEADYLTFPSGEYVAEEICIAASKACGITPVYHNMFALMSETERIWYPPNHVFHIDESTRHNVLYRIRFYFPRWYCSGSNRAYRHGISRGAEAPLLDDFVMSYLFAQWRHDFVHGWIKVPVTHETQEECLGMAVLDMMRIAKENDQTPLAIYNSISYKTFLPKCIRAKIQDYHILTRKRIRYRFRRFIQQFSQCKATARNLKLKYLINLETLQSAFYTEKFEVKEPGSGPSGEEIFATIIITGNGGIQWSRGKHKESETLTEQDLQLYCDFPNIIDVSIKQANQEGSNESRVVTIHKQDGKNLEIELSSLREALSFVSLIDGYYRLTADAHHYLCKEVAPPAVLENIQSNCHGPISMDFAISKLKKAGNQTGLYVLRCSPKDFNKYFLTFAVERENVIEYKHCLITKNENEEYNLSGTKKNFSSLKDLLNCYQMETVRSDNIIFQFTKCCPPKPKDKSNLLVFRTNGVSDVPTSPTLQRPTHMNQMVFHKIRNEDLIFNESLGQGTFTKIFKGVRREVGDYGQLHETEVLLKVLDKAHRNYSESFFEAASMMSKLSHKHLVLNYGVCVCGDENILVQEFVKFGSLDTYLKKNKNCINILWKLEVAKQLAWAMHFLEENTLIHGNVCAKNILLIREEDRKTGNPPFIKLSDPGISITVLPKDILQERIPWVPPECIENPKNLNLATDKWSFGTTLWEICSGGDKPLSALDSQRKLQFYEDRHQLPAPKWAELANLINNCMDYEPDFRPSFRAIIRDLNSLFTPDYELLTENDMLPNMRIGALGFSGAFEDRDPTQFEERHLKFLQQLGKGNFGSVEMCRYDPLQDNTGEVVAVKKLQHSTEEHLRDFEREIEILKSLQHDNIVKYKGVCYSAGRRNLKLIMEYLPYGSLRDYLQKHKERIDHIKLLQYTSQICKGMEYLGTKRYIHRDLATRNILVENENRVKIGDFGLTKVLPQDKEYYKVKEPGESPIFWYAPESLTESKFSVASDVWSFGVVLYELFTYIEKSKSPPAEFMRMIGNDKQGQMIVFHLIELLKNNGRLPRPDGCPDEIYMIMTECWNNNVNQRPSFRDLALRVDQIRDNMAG
Outline: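 pKi values derive from pIC50 via Cheng-Prusoff, with IC50 from a 4-parameter fit of percent-inhibition TR-FRET data using Tb-anti-pSTAT1 (pTyr701) detection. Compound, GST-JAK2 and GFP-STAT1 substrate were pre-incubated 1 h, then ATP started a 1 h ambient reaction (HEPES pH 7.5, 10 mM MgCl2, 1% DMSO).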

[1] = system: IL-2 stimulated pSTAT5 in Tall-1 T cells; test: Cellular JAK3 potency assay: inhibition of IL-2 stimulated pSTAT5 in Tall-1 T cells; format: cell-based, human; details: for IC50: Homo sapiens, read-out: Tall-1 (pIC50) (converted); for Tall-1 (pIC50): IL-2 stimulated pSTAT5, Tall-1 T cells
Outline: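 Inhibition of IL-2-induced pSTAT5 was quantified by AlphaLisa in Tall-1 cell lysates. Compound exposure lasted 1 h before 30 min stimulation with 300 ng/ml IL-2 final.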

[2] = selectivity: difference of pKi JAK3 and pKi JAK1
[3] = TALL-1, IL-2 stimulated pSTAT5 in Tall-1 T cells
[4] = selectivity JAK3 over JAK1, difference of pKi
[5] = TALL-1, IL-2 stimulated pSTAT5, Tall-1 T cells

T1 sequence (P29597 whole entry): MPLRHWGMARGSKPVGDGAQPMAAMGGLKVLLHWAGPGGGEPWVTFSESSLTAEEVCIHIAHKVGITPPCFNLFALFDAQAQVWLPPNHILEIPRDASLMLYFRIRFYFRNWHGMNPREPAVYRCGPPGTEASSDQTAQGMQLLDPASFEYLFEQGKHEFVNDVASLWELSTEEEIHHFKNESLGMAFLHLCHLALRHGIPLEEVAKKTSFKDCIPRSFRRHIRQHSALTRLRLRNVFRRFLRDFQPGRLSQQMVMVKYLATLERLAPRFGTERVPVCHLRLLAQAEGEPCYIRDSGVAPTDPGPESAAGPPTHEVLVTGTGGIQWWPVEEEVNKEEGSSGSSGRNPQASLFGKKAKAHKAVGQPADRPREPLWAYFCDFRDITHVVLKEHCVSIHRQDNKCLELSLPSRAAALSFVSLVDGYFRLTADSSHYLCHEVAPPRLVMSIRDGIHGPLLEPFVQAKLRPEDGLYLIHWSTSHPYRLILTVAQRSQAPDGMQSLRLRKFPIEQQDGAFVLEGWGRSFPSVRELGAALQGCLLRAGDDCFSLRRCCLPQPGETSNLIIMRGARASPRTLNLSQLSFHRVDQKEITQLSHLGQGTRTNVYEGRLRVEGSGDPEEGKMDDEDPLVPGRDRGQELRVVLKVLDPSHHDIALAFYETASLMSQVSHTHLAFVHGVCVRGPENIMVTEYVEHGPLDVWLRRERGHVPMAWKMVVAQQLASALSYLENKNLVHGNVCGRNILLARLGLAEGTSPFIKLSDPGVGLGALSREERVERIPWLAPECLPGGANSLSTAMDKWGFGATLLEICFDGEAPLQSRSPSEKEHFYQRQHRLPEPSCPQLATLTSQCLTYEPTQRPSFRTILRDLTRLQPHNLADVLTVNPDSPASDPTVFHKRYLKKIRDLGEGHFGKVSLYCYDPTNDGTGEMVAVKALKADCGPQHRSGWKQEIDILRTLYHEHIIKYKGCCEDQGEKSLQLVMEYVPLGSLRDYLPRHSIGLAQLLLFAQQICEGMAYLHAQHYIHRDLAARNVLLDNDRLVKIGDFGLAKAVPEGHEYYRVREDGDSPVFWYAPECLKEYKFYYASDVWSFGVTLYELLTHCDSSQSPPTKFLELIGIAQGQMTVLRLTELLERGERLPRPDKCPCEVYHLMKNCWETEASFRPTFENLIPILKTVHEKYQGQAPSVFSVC

SMILES | Ki (Tyk2) [nM] | Ki (JAK3) [nM] | JAK3 (pKi)-JAK1 (pKi) (JAK3; [2]) | Ki (JAK1) [nM] | Ki (JAK2) [nM] | IC50 [1, 3] [nM] | Tyk 2 (pKi) (Tyk2) | JAK 3 (pKi) (JAK3) | JAK3 (pKi)-JAK1 (pKi) (JAK3; [4]) | JAK 1 (pKi) (JAK1) | JAK 2 (pKi) (JAK2) | Tall-1 (pIC50) [1] | IC50 [1, 5] [nM]
C=CC(=O)N1CC[C@H](Oc2nc(-c3ccc(O)c(F)c3)nc3[nH]nc(C)c23)C1 [Compound 1-38] | > 100 | < 0.1 | A (a value of 3 or above) | > 100 | > 100 | 31.6 to 200 | – | – | – | – | – | – | –
CN(C)C/C=C/C(=O)N1CCC(C)(Nc2cc(-c3ccc(O)c(F)c3)cc3[nH]ncc23)CC1 [Compound 7-12] | – | – | – | – | – | – | E (a pKi value of 7 or below (Ki of 100 nM or above)) | B (a pKi value between 9 and 10 (Ki between 1 nM and 0.1 nM)) | A (a value of 3 or above) | E (a pKi value of 7 or below (Ki of 100 nM or above)) | D (a pKi value between 7 and 8 (Ki between 100 nM and 10 nM)) | B (a pIC50 value between 6.7 (included) and 7.5 (IC50 between 200 nM and 32 nM)) | –
CN(C)C/C=C/C(=O)N1CC[C@H](Sc2cc(-c3ccc(O)cc3)cc3[nH]ncc23)C1 [Compound 12-1] | > 100 | 0.1 to 1 | – | > 100 | 10 to 100 | – | – | – | A (a value of 3 or above) | – | – | – | 31.6 to 200
C=CC(=O)N1CCC(Oc2cc(-c3ccc(O)cc3)nc3[nH]ncc23)CC1C (stereo not drawn) [Compound 13-11] | – | – | – | – | – | – | E (a pKi value of 7 or below (Ki of 100 nM or above)) | A (a pKi value≥10 (Ki≤0.1 nM)) | A (a value of 3 or above) | E (a pKi value of 7 or below (Ki of 100 nM or above)) | E (a pKi value of 7 or below (Ki of 100 nM or above)) | A (a pIC50 value≥7.5 (IC50≤32 nM)) | –
C=CC(=O)N1CCO[C@@H](C(=O)Nc2cc(-c3ccc(O)c(Cl)c3)nc3[nH]ncc23)C1 [Compound 13-22] | – | – | – | – | – | – | E (a pKi value of 7 or below (Ki of 100 nM or above)) | B (a pKi value between 9 and 10 (Ki between 1 nM and 0.1 nM)) | A (a value of 3 or above) | E (a pKi value of 7 or below (Ki of 100 nM or above)) | E (a pKi value of 7 or below (Ki of 100 nM or above)) | B (a pIC50 value between 6.7 (included) and 7.5 (IC50 between 200 nM and 32 nM)) | –
C=CC(=O)N1CC(COc2nc(-c3ccc(O)c(Cl)c3)cc3[nH]ncc23)C1 [Compound 3-35] | > 100 | 0.1 to 1 | A (a value of 3 or above) | > 100 | > 100 | < 31.6 | – | – | – | – | – | – | –
CN(C)CC=CC(=O)N1CCCC(Oc2cc(-c3ccc(O)c(Cl)c3)cc3[nH]ncc23)C1 (stereo not drawn) [Compound 8-2] | – | – | – | – | – | – | E (a pKi value of 7 or below (Ki of 100 nM or above)) | B (a pKi value between 9 and 10 (Ki between 1 nM and 0.1 nM)) | A (a value of 3 or above) | E (a pKi value of 7 or below (Ki of 100 nM or above)) | D (a pKi value between 7 and 8 (Ki between 100 nM and 10 nM)) | B (a pIC50 value between 6.7 (included) and 7.5 (IC50 between 200 nM and 32 nM)) | –
CN(C)C/C=C/C(=O)N1CC(F)(C(=O)Nc2cc(-c3ccc(O)cc3)cc3[nH]ncc23)C1 [Compound 12-67] | > 100 | 0.1 to 1 | – | > 100 | > 100 | – | – | – | A (a value of 3 or above) | – | – | – | 31.6 to 200
CN(C)C/C=C/C(=O)N1CC(F)(COc2cc(-c3ccc(O)c(Cl)c3)cc3[nH]ncc23)C1 [Compound 3-42] | > 100 | 0.1 to 1 | B (a value of 2.3 to 3) | 0.1 to 1 | 10 to 100 | < 31.6 | – | – | – | – | – | – | –
CN(C)C/C=C/C(=O)N1CC(OCc2cc(-c3ccc(O)c(Cl)c3)cc3[nH]ncc23)C1 [Compound 16-1] | – | – | – | – | – | – | E (a pKi value of 7 or below (Ki of 100 nM or above)) | A (a pKi value≥10 (Ki≤0.1 nM)) | A (a value of 3 or above) | E (a pKi value of 7 or below (Ki of 100 nM or above)) | E (a pKi value of 7 or below (Ki of 100 nM or above)) | B (a pIC50 value between 6.7 (included) and 7.5 (IC50 between 200 nM and 32 nM)) | –
C=CC(=O)N1CC(C(=O)Nc2cc(-c3ccc(O)cc3)cc3[nH]ncc23)C1 [Compound 12-46] | > 100 | < 0.1 | – | > 100 | 10 to 100 | – | – | – | A (a value of 3 or above) | – | – | – | 31.6 to 200
C=CC(=O)N1CC[C@@H](Oc2cc(-c3ccc(O)cc3)cc3[nH]ncc23)C[C@@H]1C [Compound 12-30] | > 100 | < 0.1 | – | > 100 | 1 to 10 | – | – | – | A (a value of 3 or above) | – | – | – | < 31.6
C=CC(=O)N1CCC(C)(Nc2nc(-c3ccc(O)cc3)cc3[nH]ncc23)CC1 [Compound 7-13] | – | – | – | – | – | – | E (a pKi value of 7 or below (Ki of 100 nM or above)) | A (a pKi value≥10 (Ki≤0.1 nM)) | A (a value of 3 or above) | E (a pKi value of 7 or below (Ki of 100 nM or above)) | D (a pKi value between 7 and 8 (Ki between 100 nM and 10 nM)) | A (a pIC50 value≥7.5 (IC50≤32 nM)) | –
CN(C)CC=CC(=O)N1CCCC(Oc2cc(-c3ccc(O)c(F)c3)cc3[nH]ncc23)C1 (stereo not drawn) [Compound 8-4] | – | – | – | – | – | – | E (a pKi value of 7 or below (Ki of 100 nM or above)) | B (a pKi value between 9 and 10 (Ki between 1 nM and 0.1 nM)) | B (a value of 2.3 to 3) | E (a pKi value of 7 or below (Ki of 100 nM or above)) | D (a pKi value between 7 and 8 (Ki between 100 nM and 10 nM)) | B (a pIC50 value between 6.7 (included) and 7.5 (IC50 between 200 nM and 32 nM)) | –

Source: patent US10392368B2, “Pyrazolo and triazolo bicyclic compounds as JAK kinase inhibitors” (THERAVANCE BIOPHARMA R&D IP, LLC, priority 2017, dated 2019)
